Results taken from patent US11202792B2, “CD99 inhibitors and their uses” (GEORGETOWN UNIVERSITY, priority 2016, dated 2021).
Like-named read-outs stand apart in the source and are kept apart here.

Legend:
TC-71 ES cells = assay: Cell viability IC50, TC-71; format: cell-based, human; conditions: for IC50: Homo sapiens; for Fold changes in IC50: TC-71 parental cells, mean ± SD
[1] = system: RH30 rhabdomyosarcoma cells; assay: Cell viability IC50, RH30; format: cell-based; conditions: Homo sapiens; RH30 (RM)
Experimental: (§1) The plate was installed into the RTCA system, and the electrical impedance (represented as cell index) was measured every 10 min.
(§2) To investigate the relationship between the level of CD99 expression and drug sensitivity, the endogenous expression of CD99 was determined in a panel of 9 ES and 13 non-ES cell lines. The recombinant purified CD99-ECD protein was used to generate standard curves for immunoquantification of CD99 expression by immunoblotting (FIGS. 6B and 6C).

TC-CD99-shRNA #1 cells = conditions: mean ± SD
Experimental: as §1
(§3) TC-CD99-shRNA clones (TC-CD99-shRNA #1 and TC-CD99-shRNA #2) were established after selection in neomycin (500 μg/ml) (Sigma-Aldrich). The expression of DCK and CD99 was suppressed transiently by using a validated small interfering RNA (siRNA) duplexes targeting coding region (Invitrogen (Carlsbad, Calif.); #s186 and #s8768, respectively). Silencer™ Select Negative Control No. 2 siRNA (Invitrogen) was used as the control. Cells were transfected with DCK or CD99 or control siRNA oligonucleotides using X-tremeGene siRNA transfection reagent (Roche Diagnostics (Basel, Switzerland)) according to the manufacturer's protocol. The cells were analyzed for DCK and CD99 knockdown after 45 or 72 h by immunoblotting.
(§4) Two stable transfectants of TC-71 cell line, TC-CD99-shRNA #1 and TC-CD99-shRNA #2, were generated by using plasmids expressing either a shRNA targeting the 3′ untranslated region (UTR) of CD99 or a scrambled shRNA control.

TC-CD99-shRNA #2 cells = conditions: mean ± SD
Experimental: as §1, §3, §4

6647 ES cells = assay: Cell viability IC50, 6647; format: cell-based; conditions: Homo sapiens
Experimental: as §1, §2

[2] = system: TC-71 and RD-ES cell lines; assay: Dose-dependent cytotoxicity assay in ES cell lines; format: cell-based, human; conditions: Homo sapiens; dose-response at 1, 3, 10 and 30 μmol/L in TC-71 and RD-ES
Experimental: as §1
The primary screen was based on a direct binding assay using surface plasmon resonance (SPR) technology with purified extracellular domain of CD99 (CD99-ECD) protein that was immobilized on a neutravidin-coated sensor chip. […] A negative control protein was used in order to eliminate non-specific binders. […] Dose-response studies were performed with 2 compounds at 1, 3, 10 and 30 μmol/L concentration in ES cell lines.

[3] = system: ROCK2 expression in RDES, 6647, IOR/CAR and TC-71 ES cells; assay: ROCK2 expression by immunoblot in ES cells; format: cell-based, human; conditions: 24 h, vs DMSO-treated control cells
Experimental: Immunoblot analysis was performed on total cell lysates for ROCK2 and GAPDH expression. In FIG. 8B, TC-71 control and TC-CD99-shRNA #2 cells were treated with either drug at indicated concentrations for 1, 3 and 6 h. Immunoblot analysis was performed on total cell lysates for ROCK2 and GAPDH expression. In FIG. 8C, cell migration experiments were performed using Boyden chamber transwell migration assay with 10% serum serving as the chemoattractant in the lower chamber. […] The number of migrated cells was then quantified by counting the cells in the bottom chamber under the microscope. Asterisks indicate statistically significant differences between treatments (*p<0.05; vs. control using a Student's unpaired t test). […]

RDES ES cells = assay: Cell viability IC50, RDES; format: cell-based; conditions: Homo sapiens, RD-ES
IOR/OS10 OS cells = assay: Cell viability IC50, IOR/OS10; format: cell-based; conditions: Homo sapiens
Experimental: as §1, §2

SMILES	IC50 (TC-71 ES cells; TC-71 (ES), Table 1)	IC50 (TC-71 ES cells; TC-71 cells, WST-1, 48 h (FIG. 10B))	Fold changes in IC50 (TC-71 ES cells)	IC50 [1]	Fold changes in IC50 compared with TC-71 parental cells (TC-CD99-shRNA #1 cells)	Fold changes in IC50 compared with TC-71 parental cells (TC-CD99-shRNA #1 cells; listed as Clofarabine)	Fold changes in IC50 compared with TC-71 parental cells (TC-CD99-shRNA #2 cells)	Fold changes in IC50 compared with TC-71 parental cells (TC-CD99-shRNA #2 cells; listed as Clofarabine)	IC50 (6647 ES cells)	IC50 [2]	ROCK2 expression [3]	IC50 (RDES ES cells)	IC50 (IOR/OS10 OS cells)	tolerability (TC-71 and SKES xenograft models, clofarabine 30 mg/kg in TC-71)	total body weight (weighed daily during treatment)	Fold changes in IC50 compared with TC-71 parental cells (TC-CD99-shRNA #1 cells; listed as Cladribine)	Fold changes in IC50 compared with TC-71 parental cells (TC-CD99-shRNA #2 cells; listed as Cladribine)	total body weight (mouse, in vivo)
Nc1nc(Cl)nc2c1ncn2[C@@H]1O[C@H](CO)[C@@H](O)[C@@H]1F [clofarabine]	150 nM	150 nM	1.10 ± 0.38 (n = 8)	> 10 µM	3.70	3.70 ± 2.98 (n = 5)	1.63	1.63 ± 0.54 (n = 5)	340 nM	< 1000 nM	notable decrease	490 nM	1.37 µM	early deaths	does not change			
Nc1nc(Cl)nc2c1ncn2[C@H]1C[C@H](O)[C@@H](CO)O1 [cladribine]	500 nM		1.02 ± 0.27 (n = 5)	3.26 µM	2.85		2.35		710 nM	< 1000 nM	notable decrease	660 nM	11.4 µM			2.85 ± 1.13 (n = 4)	2.35 ± 1.43 (n = 2)	does not change
